Data published in US20220409681A1, “LACTOBACILLUS SALIVARIUS LS97 AND APPLICATION THEREOF” (WECARE PROBIOTICS CO., LTD., priority 2019, published 2022).

Tests used:
Streptococcus sobrinus = experiment: Rat dental caries model: oral S. sobrinus count and Keyes caries score; type: in vivo, Wistar rats
Experimental: (§1) SPF female Wistar rats (about 3 weeks old) were obtained and housed in a barrier environment with constant temperature and humidity, with 12 h of light and 12 h of darkness. All rats were acclimated to the environment and diet in a week before experiment, and then were randomly divided into groups according to body weight. The rats were randomly divided into 4 groups according to body weight with 10 rats in each group, among which one group was set as the blank control group (blank group), one group was set as the dental caries model group (dental caries group), and two groups were set as the intervention group. The intervention groups were wiped S. sobrinus continuously for 7 days, and after confirming that S. sobrinus was successfully colonized in the rat's oral cavity, the corresponding experimental groups were wiped chlorhexidine (chlorhexidine group) and LS97 (LS97 group) continuously for 7 days respectively, and then 3 times a week. Chlorhexidine, an ionic drug with good antibacterial effect, was used as a positive control group. The cariogenic bacteria S. sobrinus and LS97 were both cultured overnight for 12 h. After adjusted to a bacterial concentration of 1×10^8 CFU/mL, 0.2 mL of bacterial suspension was wiped onto the rat molars by sterile cotton swab, and namely, the cotton swab that absorbed bacterial suspension sufficiently worked on each quarter of the rat's oral teeth for the same 15 s. During the experiment, except for the blank control group fed normal feed and drinking water, other groups were all fed cariogenic feed Diet 2000# and drinking water added with 5% sucrose, in which the main components of cariogenic feed are shown in Table 4. The experimental period was maintained for 10 weeks.
At the 3rd, 7th, and 10th weeks of the experiment (corresponding to the early, middle and late stages of the experiment, respectively), the first, second and third samplings were performed on the oral teeth of rats, and samples were spread on MRS solid medium added with vancomycin of 12 μg/mL for Streptococcus sobrinus count.
After the rat experiment was finished, the rats were killed and the rat molars were taken out. The molars were placed in a 0.4% murexide dye liquor and soaked for 12 h overnight for dyeing. After the molars were rinsed by clean water and dried naturally, the caries lesion condition of rat molars in each group was observed under a stereo microscope. Caries scoring was performed on the rat teeth by using the Keyes caries scoring method. According to Keyes' classic method for evaluating dental caries, the lesion degree of dental caries is divided into four grades: E-grade caries, caries lesion involving enamel only; Ds-grade caries, enamel caries lesion and caries lesion involving the outer dentin less than ¼; Dm-grade caries, caries lesion involving the dentin thickness within ¼ to ¾; Dx-grade caries, caries lesion involving the dentin thickness more than ¾, and the result is shown in FIG. 4.

[1] = Rat dental caries model: body weight; type: in vivo, Wistar rats
Experimental: as §1

[2] = Keyes caries scoring, FIG. 4, versus dental caries model group

[H]/N=C(\N/C(=N/[H])NCCCCCCNC(=N)NC(=N)Nc1ccc(Cl)cc1)Nc1ccc(Cl)cc1 [Chlorhexidine]
Effect on Dm caries (in words) (Streptococcus sobrinus; [2]): not obvious | Effect on E caries and Ds caries (in words) (Streptococcus sobrinus; [2]): effectively reduced | Change of the number of Streptococcus sobrinus in the oral cavity (in words) (Streptococcus sobrinus; after intervention, chlorhexidine statement refers to the third test): showed an increment circumstance | Count of Streptococcus sobrinus in oral sampling (Streptococcus sobrinus; sampling number 1, 3rd week): 5.53 ± 0.23 Log value | Count of Streptococcus sobrinus in oral sampling (Streptococcus sobrinus; sampling number 2, 7th week): 4.00 ± 0.19 Log value | Count of Streptococcus sobrinus in oral sampling (Streptococcus sobrinus; sampling number 3, 10th week): 4.31 ± 0.13 Log value | Body weight of rats after the experiment ([1]; 10 weeks): 212.49 ± 23.86 g | Rat body weight increment ([1]; 10 weeks): 147.83 ± 19.73 g | Body weight of rats before the experiment ([1]; baseline): 60.32 ± 5.28 g
